The text below walks through data of patent US20220135571A1, “THERAPEUTIC EGFR INHIBITORS” (Hoffmann-La Roche Inc., priority 2019, published 2022).

Counter-ions that a name gives are not always drawn.

Experiment [1] has as its target T1, EGFR TMLR (T790M/L858R), H1975 cell line (Homo sapiens, UniProt P00533, L858R/T790M).
T1 construct: H1975 cell line (CRL-5908; Lot BA70803) was obtained from American Type Culture Collection; host or cells: H1975
In words: HTRF Phospho EGFR TMLR Assay (Cellular). The class given is cell-based. The following applies: H1975 cells, 16 hours compound incubation. On the procedure: HTRF Phospho EGFR TMLR Assay (Cellular)
H1975 cell line (CRL-5908; Lot BA70803) was obtained from American Type Culture Collection (Manassas, Va., USA). Cells were maintained at 37° C., 5% CO2 in complete Media RPMI 1640 without phenol red containing 0.3 mg/ml glutamine, 100 IU/ml penicillin, and […] streptomycin (Gibco, 15140-122) supplemented with 10% fetal bovine serum (FBS, Gibco, 10091-148). Compounds were diluted into starving medium RPMI 1640 Media (Gibco, 11835-030) without phenol red containing 0.3 mg/ml glutamine, 100 IU/ml penicillin, and […] streptomycin (Gibco).
Cells were cultured for 24 h in a 384-well plate (Greiner Bio-One, Nr. 784-080; 5000 cells/well) using 8 μl of complete medium/well. Then 4 µl/well of the 3× compound solution, containing a factor 3 dilution series of the compound or DMSO in starving medium, were added to the cells (final DMSO 0.33%). After 16 hours at 37° C., 5% CO2, 95% rel. humidity cells were lysed by adding to the compound mix 4 µl/well of the supplemented lysis buffer (Cis-bio, Phospho-EGFR HTRF kit, 64EG1PEH), followed by incubation for 30 min at room temperature with shaking (400 rpm). Then 4 μl of a mixture of anti-Phospho-EGFR Cryptate and of anti-Phospho-EGFR-d2 antibody solutions prepared in the detection buffer was added. The plates were then incubated for 4 h at room temperature before reading the fluorescence emission at 620 and 665 nm using an Envision reader (Perkin Elmer).
A general note: Time-resolved FRET reads energy transfer from a long-lived donor to a nearby acceptor.

Experiment [2] has as its target T2, EGFR TMLRCS (T790M/L858R/C797S), BaF3-TMLRCS cell line (Homo sapiens, UniProt P00533, C797S/L858R/T790M).
T2 construct: host or cells: BaF3
Kind of experiment: HTRF Phospho EGFR TMLRCS Assay (Cellular). The class given is cell-based. The following applies: BaF3-TMLRCS cells, 4 hours compound incubation. On the procedure: HTRF Phospho EGFR TMLRCS Assay (Cellular)
BaF3-TMLRCS cell line were obtained from Crownbio (San Diego, Calif., USA). Cells were maintained at 37° C., 5% CO2 in RPMI ATCC (Gibco 31870)+2 mM Glutamine+0.5 μg/ml Puromycin supplemented with 10% fetal bovine serum (FBS) (Gibco).
Cells are transferred as above to Greiner Bio-One, Nr. 784-08 micro-titerplate at 20000 cells/well in 12.5 μl of growth medium/well after the plates had been pre-filled with 12.5 nl of DMSO solutions of the to be tested compounds (in dose response) or DMSO only. After spinning the plates at 300×g for 30 seconds the cells were incubated for 4 hours at 37 C, 5% CO2, 95% humidity. The cells were lysed by adding to the compound mix 4 µl/well of the supplemented lysis buffer (Cis-bio, Phospho-EGFR HTRF kit, 64EG1PEH), followed by incubation for 30 min at room temperature with shaking (400 rpm). The plates were then frozen and stored overnight at −80 C. On the next day and after thawing the plates, 4 μl of a mixture of anti-Phospho-EGFR Cryptate and of anti-Phospho-EGFR-d2 antibody solutions prepared in the supplied detection buffer was added to each well. The lidded plates were then incubated for 4 h at room temperature before reading the fluorescence emission at 616 and 665 nm using an Envision reader (Perkin Elmer). Data was analyzed in similar fashion as above using the normalized ratio of the 665 to 616 signals multiplied by 10000.

T2 sequence (P00533 25-1210 T790M/C797S/L858R): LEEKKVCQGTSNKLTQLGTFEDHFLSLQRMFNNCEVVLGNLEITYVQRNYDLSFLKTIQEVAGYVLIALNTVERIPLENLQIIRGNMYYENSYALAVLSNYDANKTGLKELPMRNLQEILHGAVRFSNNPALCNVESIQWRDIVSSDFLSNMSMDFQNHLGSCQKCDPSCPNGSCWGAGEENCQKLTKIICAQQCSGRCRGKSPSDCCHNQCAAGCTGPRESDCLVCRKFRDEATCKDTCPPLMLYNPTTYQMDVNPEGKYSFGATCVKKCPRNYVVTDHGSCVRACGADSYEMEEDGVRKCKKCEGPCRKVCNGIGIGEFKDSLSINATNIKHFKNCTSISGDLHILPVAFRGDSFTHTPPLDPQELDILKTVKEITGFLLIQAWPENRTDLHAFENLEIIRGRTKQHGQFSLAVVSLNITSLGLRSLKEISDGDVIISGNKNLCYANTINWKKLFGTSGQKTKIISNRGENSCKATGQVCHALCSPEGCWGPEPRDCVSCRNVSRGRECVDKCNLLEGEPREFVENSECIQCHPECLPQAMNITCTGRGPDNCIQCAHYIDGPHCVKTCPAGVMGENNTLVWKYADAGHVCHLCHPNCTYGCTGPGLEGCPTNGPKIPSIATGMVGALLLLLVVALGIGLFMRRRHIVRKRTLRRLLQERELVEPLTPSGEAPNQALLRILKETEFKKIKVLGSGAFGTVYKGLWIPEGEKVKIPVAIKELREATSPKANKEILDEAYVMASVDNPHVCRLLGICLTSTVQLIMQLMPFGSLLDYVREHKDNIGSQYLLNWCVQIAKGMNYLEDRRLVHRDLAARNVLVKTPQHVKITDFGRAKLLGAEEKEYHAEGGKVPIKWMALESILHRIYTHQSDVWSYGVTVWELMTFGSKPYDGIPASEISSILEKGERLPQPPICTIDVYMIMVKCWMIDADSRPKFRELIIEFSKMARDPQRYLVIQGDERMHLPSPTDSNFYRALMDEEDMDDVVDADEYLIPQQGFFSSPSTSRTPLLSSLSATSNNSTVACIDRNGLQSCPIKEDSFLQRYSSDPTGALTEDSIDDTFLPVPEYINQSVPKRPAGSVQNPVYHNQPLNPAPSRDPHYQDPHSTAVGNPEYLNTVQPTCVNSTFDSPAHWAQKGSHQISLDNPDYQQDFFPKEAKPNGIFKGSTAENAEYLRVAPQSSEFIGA
T1 sequence (P00533 25-1210 T790M/L858R): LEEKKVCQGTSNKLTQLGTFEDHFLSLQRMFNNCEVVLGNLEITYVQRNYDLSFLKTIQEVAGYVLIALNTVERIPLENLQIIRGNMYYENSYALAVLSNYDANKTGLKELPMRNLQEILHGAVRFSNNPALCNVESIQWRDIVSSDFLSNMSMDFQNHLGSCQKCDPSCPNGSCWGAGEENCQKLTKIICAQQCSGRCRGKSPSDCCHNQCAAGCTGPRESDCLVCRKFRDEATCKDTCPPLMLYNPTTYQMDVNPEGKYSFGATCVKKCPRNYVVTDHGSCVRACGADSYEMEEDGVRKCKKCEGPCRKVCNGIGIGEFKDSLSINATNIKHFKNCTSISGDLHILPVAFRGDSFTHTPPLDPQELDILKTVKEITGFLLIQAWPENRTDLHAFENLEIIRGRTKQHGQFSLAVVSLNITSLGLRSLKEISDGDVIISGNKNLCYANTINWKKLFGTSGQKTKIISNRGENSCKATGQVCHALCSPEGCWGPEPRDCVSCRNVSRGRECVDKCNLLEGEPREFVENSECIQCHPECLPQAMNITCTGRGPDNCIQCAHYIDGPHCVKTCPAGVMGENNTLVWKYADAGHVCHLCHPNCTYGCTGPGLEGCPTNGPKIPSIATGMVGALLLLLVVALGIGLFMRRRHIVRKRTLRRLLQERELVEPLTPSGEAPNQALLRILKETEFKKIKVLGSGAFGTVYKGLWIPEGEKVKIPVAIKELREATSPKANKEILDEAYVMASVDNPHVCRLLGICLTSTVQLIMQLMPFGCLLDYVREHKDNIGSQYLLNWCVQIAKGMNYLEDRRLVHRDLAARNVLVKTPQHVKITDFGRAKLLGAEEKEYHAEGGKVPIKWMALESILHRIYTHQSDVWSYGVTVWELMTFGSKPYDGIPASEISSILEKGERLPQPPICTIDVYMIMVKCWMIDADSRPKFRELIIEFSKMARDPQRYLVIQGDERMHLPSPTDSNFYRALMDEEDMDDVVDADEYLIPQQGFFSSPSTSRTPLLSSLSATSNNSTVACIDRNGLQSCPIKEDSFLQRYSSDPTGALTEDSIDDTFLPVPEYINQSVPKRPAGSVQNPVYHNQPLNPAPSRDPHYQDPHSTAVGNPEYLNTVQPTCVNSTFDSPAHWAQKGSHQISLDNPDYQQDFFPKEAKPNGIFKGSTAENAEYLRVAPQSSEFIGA

By IC50 is commonly meant the point on the concentration scale where inhibition reaches its midpoint. Read a low IC50 as higher potency. Molecule `COc1c(-c2ccc3c(c2)CCC(=O)N3C)cc(Cl)c2cn(C(C(=O)Nc3nccs3)c3ncn4c3C[C@@H](F)C4)nc12` (mixture of isomers) [Example 20, 2-[4-Chloro-7-methoxy-6-(1-methyl-2-oxo-3,4-dihydroquinolin-6-yl)indazol-2-yl]-2-[rac-(6R)-6-fluoro-6,7-dihydro-5H-pyrrolo[1,2-c]imidazol-1-yl]-N-(1,3-thiazol-2-yl)acetamide] displayed an IC50 in experiment [1] of 1 nM.

`CCN1CCN(c2ccc(-c3cc(Cl)c4cn(C(C(=O)Nc5nccs5)c5ncn6c5C[C@@H](F)C6)nc4c3OC)cc2)CC1` (mixture of isomers) [Example 21, 2-[4-Chloro-6-[4-(4-ethylpiperazin-1-yl)phenyl]-7-methoxyindazol-2-yl]-2-[rac-(6R)-6-fluoro-6,7-dihydro-5H-pyrrolo[1,2-c]imidazol-1-yl]-N-(1,3-thiazol-2-yl)acetamide]: it took 3 nM to reach half-maximal inhibition in experiment [1] (IC50). In experiment [1], `COc1c(-c2ccc(C3CCN(C4CC4)CC3)cc2)cc(Cl)c2cn(C(C(=O)Nc3nccs3)c3ncn4c3C[C@@H](F)C4)nc12` (mixture of isomers) [Example 22, 2-[4-Chloro-6-[4-(1-cyclopropylpiperidin-4-yl)phenyl]-7-methoxyindazol-2-yl]-2-[rac-(6R)-6-fluoro-6,7-dihydro-5H-pyrrolo[1,2-c]imidazol-1-yl]-N-(1,3-thiazol-2-yl)acetamide] showed an IC50 of 5 nM.

On to `O=C(Nc1nccs1)C(c1ncn2c1CCC2)n1cc2c(Cl)cc(-c3ccc(N4CCNCC4)cc3)cc2n1` (stereo not drawn) [Example 1, 2-(4-Chloro-6-(4-(piperazin-1-yl)phenyl)-2H-indazol-2-yl)-2-(6,7-dihydro-5H-pyrrolo[1,2-c]imidazol-1-yl)-N-(thiazol-2-yl)acetamide hydrochloride], for which the results for the IC50 in experiment [2] and in experiment [1] were 7 nM and 3 nM, respectively. As for `CC(=O)N1CCN(c2ccc(-c3cc(Cl)c4cn(C(C(=O)Nc5nccs5)c5ncn6c5CCC6)nc4c3)cc2)CC1` (stereo not drawn) [Example 2, 2-(6-(4-(4-Acetylpiperazin-1-yl)phenyl)-4-chloro-2H-indazol-2-yl)-2-(6,7-dihydro-5H-pyrrolo[1,2-c]imidazol-1-yl)-N-(thiazol-2-yl)acetamide], the IC50 was 5 nM in experiment [2] and 0.4 nM in experiment [1]. In experiment [1], `O=C(Nc1nccs1)C(c1ncn2c1CCC2)n1cc2c(Cl)cc(-c3ccc(N4CCNCC4)c(Cl)c3)cc2n1` (stereo not drawn) [Example 3, 2-(4-Chloro-6-(3-chloro-4-(piperazin-1-yl)phenyl)-2H-indazol-2-yl)-2-(6,7-dihydro-5H-pyrrolo[1,2-c]imidazol-1-yl)-N-(thiazol-2-yl)acetamide hydrochloride] gave a half-maximal inhibitory concentration (IC50) of 9 nM.

Take `CCN1CCN(c2ccc(-c3cc(Cl)c4cn(C(C(=O)Nc5nccs5)c5ncn6c5CCC6)nc4c3)cc2Cl)CC1` (stereo not drawn) [Example 4, 2-(4-Chloro-6-(3-chloro-4-(4-ethylpiperazin-1-yl)phenyl)-2H-indazol-2-yl)-2-(6,7-dihydro-5H-pyrrolo[1,2-c]imidazol-1-yl)-N-(thiazol-2-yl)acetamide]: the IC50 in experiment [2] came out at 14 nM; in experiment [1] it was 11 nM. `O=C(Nc1nccs1)C(c1ncn2c1C[C@@H](F)C2)n1cc2c(F)cc(-c3ccc(N4CCNCC4)c(Cl)c3)cc2n1` (stereo partly drawn) [Example 6, 2-(6-(3-Chloro-4-(piperazin-1-yl)phenyl)-4-fluoro-2H-indazol-2-yl)-2-((R)-6-fluoro-6,7-dihydro-5H-pyrrolo[1,2-c]imidazol-1-yl)-N-(thiazol-2-yl)acetamide hydrochloride]: the IC50 in experiment [1] came out at 3 nM. For the molecule `CC(=O)N1CCN(c2ccc(-c3cc(F)c4cn(C(C(=O)Nc5nccs5)c5ncn6c5C[C@@H](F)C6)nc4c3)cc2Cl)CC1` (stereo partly drawn) [Example 7, 2-(6-(4-(4-Acetylpiperazin-1-yl)-3-chlorophenyl)-4-fluoro-2H-indazol-2-yl)-2-((R)-6-fluoro-6,7-dihydro-5H-pyrrolo[1,2-c]imidazol-1-yl)-N-(thiazol-2-yl)acetamide], the IC50 in experiment [1] was 1 nM.

In experiment [1], `CCN1CCN(c2ccc(-c3cc(F)c4cn(C(C(=O)Nc5nccs5)c5ncn6c5C[C@@H](F)C6)nc4c3)cc2Cl)CC1` (stereo partly drawn) [Example 8, 2-(6-(3-Chloro-4-(4-ethylpiperazin-1-yl)phenyl)-4-fluoro-2H-indazol-2-yl)-2-((R)-6-fluoro-6,7-dihydro-5H-pyrrolo[1,2-c]imidazol-1-yl)-N-(thiazol-2-yl)acetamide] displayed an IC50 of 5 nM. As to `O=C(Nc1nccs1)C(c1ncn2c1CCC2)n1cc2c(Cl)cc(-c3ccc(N4CCNCC4)cc3)c(Cl)c2n1` (stereo not drawn) [Example 9, 2-(4,7-Dichloro-6-(4-(piperazin-1-yl)phenyl)-2H-indazol-2-yl)-2-(6,7-dihydro-5H-pyrrolo[1,2-c]imidazol-1-yl)-N-(thiazol-2-yl)acetamide hydrochloride], the IC50 in experiment [1] is 2 nM. As to `CC(=O)N1CCN(c2ccc(-c3cc(Cl)c4cn(C(C(=O)Nc5nccs5)c5ncn6c5CCC6)nc4c3Cl)cc2)CC1` (stereo not drawn) [Example 12, 2-(6-(4-(4-Acetylpiperazin-1-yl)phenyl)-4,7-dichloro-2H-indazol-2-yl)-2-(6,7-dihydro-5H-pyrrolo[1,2-c]imidazol-1-yl)-N-(thiazol-2-yl)acetamide], the IC50 in experiment [1] is 1 nM. Take `CCN1CCN(c2ccc(-c3cc(Cl)c4cn(C(C(=O)Nc5nccs5)c5ncn6c5CCC6)nc4c3Cl)cc2)CC1` (stereo not drawn) [Example 13, 2-(4,7-Dichloro-6-(4-(4-ethylpiperazin-1-yl)phenyl)-2H-indazol-2-yl)-2-(6,7-dihydro-5H-pyrrolo[1,2-c]imidazol-1-yl)-N-(thiazol-2-yl)acetamide]: the half-maximal inhibitory concentration (IC50) in experiment [2] amounted to 11 nM; in experiment [1] it was 1 nM. With `O=C(Nc1nccs1)C(c1ncn2c1CCC2)n1cc2c(Cl)cc(-c3ccc(N4CCNCC4)cc3)c(F)c2n1` (stereo not drawn) [Example 15, 2-(4-Chloro-7-fluoro-6-(4-(piperazin-1-yl)phenyl)-2H-indazol-2-yl)-2-(6,7-dihydro-5H-pyrrolo[1,2-c]imidazol-1-yl)-N-(thiazol-2-yl)acetamide hydrochloride], the midpoint of inhibition in experiment [1], the IC50, lay at 2 nM. In the case of `CCN1CCN(c2ccc(-c3cc(Cl)c4cn(C(C(=O)Nc5nccs5)c5ncn6c5CCC6)nc4c3F)cc2)CC1` (stereo not drawn) [Example 16, 2-(4-Chloro-6-(4-(4-ethylpiperazin-1-yl)phenyl)-7-fluoro-2H-indazol-2-yl)-2-(6,7-dihydro-5H-pyrrolo[1,2-c]imidazol-1-yl)-N-(thiazol-2-yl)acetamide], the IC50 in experiment [1] worked out at 2 nM. This lies in the single-digit nanomolar range.

Molecule `CN1C(=O)CCc2cc(-c3cc(Cl)c4cn(C(C(=O)Nc5nccs5)c5ncn6c5CCC6)nc4c3F)ccc21` (stereo not drawn) [Example 18, 2-(4-Chloro-7-fluoro-6-(1-methyl-2-oxo-1,2,3,4-tetrahydroquinolin-6-yl)-2H-indazol-2-yl)-2-(6,7-dihydro-5H-pyrrolo[1,2-c]imidazol-1-yl)-N-(thiazol-2-yl)acetamide] gave an IC50 in experiment [1] of 1 nM. In experiment [1], `CC(C)n1ccc(-c2cc(Cl)c3cn(C(C(=O)Nc4nccs4)c4ncn5c4CCC5)nc3c2F)cc1=O` (stereo not drawn) [Example 23, 2-(4-Chloro-7-fluoro-6-(1-isopropyl-2-oxo-1,2-dihydropyridin-4-yl)-2H-indazol-2-yl)-2-(6,7-dihydro-5H-pyrrolo[1,2-c]imidazol-1-yl)-N-(thiazol-2-yl)acetamide] gave an IC50 of 1 nM.
